In PMC4821887, “Identification of chemicals that mimic transcriptional changes associated with autism, brain aging and neurodegeneration” (Nature Communications, 2016):

Tested on: mouse cortical cultures
Test: RNA-seq differential expression (DESeq) against matched vehicle
Type: cell-based
Design: key to MeanFenamidone Bcl11b / MeanFenamidone Slc12a4 / MeanFenamidone Abca1 / MeanFenamidone Hmox1 / MeanFenamidone Il1rap / MeanFenamidone Cyba / MeanFenamidone Narf / MeanFenamidone Bnip3 / MeanFenamidone Amotl2 / MeanFenamidone Gad2 / MeanFenamidone Vsnl1 / MeanFenamidone Fam178a: DESeq mean of counts over RefSeq exons
Protocol: Figure 4 Cluster 2 chemicals alter expression of a common set of genes. […] RNA-seq was performed in quadruplicate after treating cortical cultures with fenamidone (10 μM) or pyraclostrobin (0.1 μM) for 24 h (n=3 biological replicates) and compared with matched vehicle controls using DESeq to detect differentially expressed genes, listed in Supplementary Data 4.
Cultures were treated with the non-cytotoxic dose of each chemical, by exchanging half of the original medium with chemicals at 2 × concentration in prewarmed feeding medium, on DIV 7 for 24 h in 12-well plates at a density of 5 × 10^5 cells per well. RNA was isolated using RNeasy plus mini kit (Cat. #74134, Qiagen). […]. Samples were further assessed for quality using either an Agilent Bioanalyzer 2100 or TapeStation 2200 to obtain a RIN. RIN values exceeding 7 were used for sequencing. RNA samples were used to generate and barcode complementary DNA libraries using the TruSeq RNA Library Preparation Kit at the UNC High Throughput Sequencing Facility. Pools of 24 multiplexed samples were sequenced per lane on an Illumina HiSeq 2500 using 50-bp paired-end reads.
RNA-seq reads were filtered using TagDust and aligned to the reference mouse genome (mm9) with TopHat using default parameters. Reads aligning to ribosomal RNA genes were removed. Transcript abundance was estimated by computing Reads per kilobase per million mapped reads (RPKM) using RefSeq gene models aggregated by gene symbol. For differential expression analyses, raw counts over RefSeq exons were used, and then were compared across samples using DESeq[62].

CSC1=N[C@@](C)(c2ccccc2)C(=O)N1Nc1ccccc1 [fenamidone]
MeanFenamidone (gene Sult4a1): 337.631 | log2FoldChange (gene Sult4a1): -1.1579 | MeanFenamidone Sv2b (gene Sv2b, DESeq mean, 4 reps): 206.444 | log2FoldChange Sv2b (gene Sv2b, vs vehicle, 4 reps): -1.8053 | MeanFenamidone (DESeq mean normalized counts) (gene Svil, Fenamidone, 4 reps, vs matched vehicle): 63.1892 | MeanFenamidone Syn2 (gene Syn2, DESeq mean, 4 reps): 290.905 | log2FoldChange Syn2 (gene Syn2, vs vehicle, 4 reps): -1.354 | MeanFenamidone Syp (gene Syp, DESeq mean, 4 reps): 891.603 | log2FoldChange Syp (gene Syp, vs vehicle, 4 reps): -1.4647 | MeanFenamidone Syt1 (gene Syt1, DESeq mean, 4 reps): 825.321 | log2FoldChange Syt1 (gene Syt1, vs vehicle, 4 reps): -1.819 | MeanFenamidone Tagln (gene Tagln, DESeq mean, 4 reps): 2032.34 | log2FoldChange Tagln (gene Tagln, vs vehicle, 4 reps): 3.012 | MeanFenamidone Tead1 (gene Tead1, DESeq mean, 4 reps): 925.254 | log2FoldChange Tead1 (gene Tead1, vs vehicle, 4 reps): 2.035 | MeanFenamidone Tgfb2 (gene Tgfb2, DESeq mean, 4 reps): 420.529 | log2FoldChange Tgfb2 (gene Tgfb2, vs vehicle, 4 reps): 1.82 | MeanFenamidone Tgfb3 (gene Tgfb3, DESeq mean, 4 reps): 398.538 | log2FoldChange Tgfb3 (gene Tgfb3, vs vehicle, 4 reps): 2.304 | MeanFenamidone Thbs1 (gene Thbs1, DESeq mean, 4 reps): 3138.32 | log2FoldChange Thbs1 (gene Thbs1, vs vehicle, 4 reps): 2.61 | MeanFenamidone Tln1 (gene Tln1, DESeq mean, 4 reps): 658.354 | log2FoldChange Tln1 (gene Tln1, vs vehicle, 4 reps): 2.579 | MeanFenamidone Tmbim1 (gene Tmbim1, DESeq mean, 4 reps): 170.347 | log2FoldChange Tmbim1 (gene Tmbim1, vs vehicle, 4 reps): 2.378 | MeanFenamidone (gene Tmem181b-ps): 77.9777 | log2FoldChange (gene Tmem181b-ps): -1.325 | MeanFenamidone (gene Tmem229b): 256.203 | log2FoldChange (gene Tmem229b): -1.123 | MeanFenamidone Tnc (gene Tnc, DESeq mean, 4 reps): 998.798 | log2FoldChange Tnc (gene Tnc, vs vehicle, 4 reps): 2.934 | MeanFenamidone Tnfrsf10b (gene Tnfrsf10b, DESeq mean, 4 reps): 126.269 | log2FoldChange Tnfrsf10b (gene Tnfrsf10b, vs vehicle, 4 reps): 2.1709 | MeanFenamidone Tnfrsf12a (gene Tnfrsf12a, DESeq mean, 4 reps): 307.752 | log2FoldChange Tnfrsf12a (gene Tnfrsf12a, vs vehicle, 4 reps): 3.087 | MeanFenamidone (gene Tns1): 238.258 | log2FoldChange (gene Tns1): 2.58 | MeanFenamidone Tpm4 (gene Tpm4, DESeq mean, 4 reps): 930.727 | log2FoldChange Tpm4 (gene Tpm4, vs vehicle, 4 reps): 1.809 | MeanFenamidone Tpp1 (gene Tpp1, DESeq mean, 4 reps): 440.575 | log2FoldChange Tpp1 (gene Tpp1, vs vehicle, 4 reps): 1.842 | MeanFenamidone (gene Tro): 343.733 | log2FoldChange (gene Tro): -1.218 | MeanFenamidone (gene Tspyl4): 870.895 | log2FoldChange (gene Tspyl4): -1.118 | MeanFenamidone Tuba4a (gene Tuba4a, DESeq mean, 4 reps): 131.218 | log2FoldChange Tuba4a (gene Tuba4a, vs vehicle, 4 reps): -1.604 | MeanFenamidone Tubb6 (gene Tubb6, DESeq mean, 4 reps): 522.566 | log2FoldChange Tubb6 (gene Tubb6, vs vehicle, 4 reps): 2.127 | MeanFenamidone Tuft1 (gene Tuft1, DESeq mean, 4 reps): 71.0226 | log2FoldChange Tuft1 (gene Tuft1, vs vehicle, 4 reps): 2.58 | MeanFenamidone Txnrd1 (gene Txnrd1, DESeq mean, 4 reps): 1365.85 | log2FoldChange Txnrd1 (gene Txnrd1, vs vehicle, 4 reps): 1.713 | MeanFenamidone Uap1l1 (gene Uap1l1, DESeq mean, 4 reps): 115.372 | log2FoldChange Uap1l1 (gene Uap1l1, vs vehicle, 4 reps): 2.463 | MeanFenamidone (gene Vash1): 501.714 | log2FoldChange (gene Vash1): -1.142 | MeanFenamidone Vasn (gene Vasn, DESeq mean, 4 reps): 270.313 | log2FoldChange Vasn (gene Vasn, vs vehicle, 4 reps): 2.194 | MeanFenamidone Vcl (gene Vcl, DESeq mean, 4 reps): 498.388 | log2FoldChange Vcl (gene Vcl, vs vehicle, 4 reps): 2.095 | MeanFenamidone Vgll3 (gene Vgll3, DESeq mean, 4 reps): 231.289 | log2FoldChange Vgll3 (gene Vgll3, vs vehicle, 4 reps): 2.348 | MeanFenamidone (gene Vim): 6511.9 | log2FoldChange (gene Vim): 1.994 | MeanFenamidone Vsnl1 (gene Vsnl1, DESeq mean, 4 reps): 216.784 | log2FoldChange Vsnl1 (gene Vsnl1, vs vehicle, 4 reps): -1.6854 | MeanFenamidone Wls (gene Wls, DESeq mean, 4 reps): 676.758 | log2FoldChange Wls (gene Wls, vs vehicle, 4 reps): 1.397 | MeanFenamidone Wnk1 (gene Wnk1, DESeq mean, 4 reps): 1955.12 | log2FoldChange Wnk1 (gene Wnk1, vs vehicle, 4 reps): 1.378 | MeanFenamidone Xkr4 (gene Xkr4, DESeq mean, 4 reps): 97.5483 | log2FoldChange Xkr4 (gene Xkr4, vs vehicle, 4 reps): -1.595 | MeanFenamidone (gene Zak): 216.098 | log2FoldChange (gene Zak): 1.697 | MeanFenamidone (gene Zbtb7b): 137.122 | log2FoldChange (gene Zbtb7b): 2.108 | MeanFenamidone Zfp36l2 (gene Zfp36l2, DESeq mean, 4 reps): 339.831 | log2FoldChange Zfp36l2 (gene Zfp36l2, vs vehicle, 4 reps): 2.067
